Source: article PMC6222382, “A Potent Tyrosinase Inhibitor, (E)-3-(2,4-Dihydroxyphenyl)-1-(thiophen-2-yl)prop-2-en-1-one, with Anti-Melanogenesis Properties in α-MSH and IBMX-Induced B16F10 Melanoma Cells” (Molecules : A Journal of Synthetic Chemistry and Natural …, 2018)
Like-named read-outs stand apart in the source and are kept apart here.

Key:
[1] = test system: intracellular tyrosinase in B16F10 melanoma cells; experiment: Cellular tyrosinase activity assay in α-MSH and IBMX-induced B16F10 melanoma cells (L-DOPA oxidation); format: cell-based, murine; conditions: α-MSH (5 μM) and IBMX (200 μM), 48 h, α-MSH and IBMX alone 310.39%
Method: (§1) Murine melanoma B16F10 cells were purchased from the Korean Cell Line Bank (Seoul, Korea). The cells were cultured in DMEM containing 10% FBS and 1% streptomycin, and then incubated at 37 °C with 5% CO2. The melanoma cells were plated at 95% confluency for all the experiments.
Intracellular tyrosinase inhibitory activity assay was achieved by measuring the rate of oxidation of L-DOPA [44]. Cells at a density of 1 × 10^5 cells/well were plated in 6-well plates (Nunc, Denmark) and incubated overnight. […] The cells were washed with PBS and lysed in a solution containing 100 µL of 50 mM phosphate buffer (pH 6.5), 0.1 mM phenylmethylsulfonylfluoride (PMSF), and 1% Triton X-100. The cells lysates were employed in a deep freezer (−80 °C) for 1 h. After defrosting the cell lysates, the cellular extracts were purified by centrifugation at 12,000 rpm for 30 min at 4 °C. A total of 80 µL of supernatant and 20 µL of L-DOPA (2 mg/mL) were added to a 96-well plate, and the absorbance at a wavelength of 492 nm was measured every 10 min during 1 h using an ELISA plate reader (TECAN, Salzburg, Austria). Total protein content was determined using BCA protein assay reagent (Thermo Scientific, Rockford, IL, USA).

B16F10 melanoma cells [2] = experiment: Melanin contents in α-MSH and IBMX-induced B16F10 melanoma cells; format: cell-based, murine; conditions: α-MSH (5 μM) and IBMX (200 μM), 48 h, α-MSH and IBMX alone 171.30%
Method: as §1
Cellular melanin content was determined as described previously. Cells were seeded in six-well culture plates (Nunc, Denmark) at 2 × 10^5 cells/well for 24 h. […] Cells were washed twice with PBS. After centrifugation, cell pellets were disrupted in 100 μL of 1N NaOH, and incubated at 60 °C for 1 h and mixed to solubilize the melanin. Absorbance at 405 nm was compared with a standard curve for synthetic melanin (TECAN, Salzburg, Austria).

mushroom tyrosinase [3] = experiment: Mushroom tyrosinase inhibitory assay (L-tyrosine or L-DOPA as substrate); format: biochemical; conditions: for IC50: mean ± SEM of triplicate experiments; for tyrosinase inhibitory activity toward L-DOPA (in words): at any of the tested concentrations
Method: The reaction mixtures were keep warm at 37 °C for 20 min. The absorbance of the mixture at 492 nm was measured using a microplate reader. The tyrosinase inhibitory activity (%) was calculated as (1 − Abssample/Abscontrol) × 100%.

B16F10 melanoma cells [4] = experiment: Cell viability, EZ-Cytox assay; format: cell-based, murine; conditions: concentrations up to 100 μM, 48 h
Method: as §1
Cell viability was assessed with the EZ-Cytox assay kit (Daeillab Service, Seoul, Korea) as previously described. In brief, B16F10 cells were seeded in 96-well plates (Corning, NY, USA) at a density of 1 × 10^4 cells/well for 24 h. The cells were fed fresh, serum-free DMEM that contained different concentrations (up to 100 μM) of 1c, and incubated for 24 h or 48 h. Then, 10 μL EZ-Cytox solution was added to each well and the cells were incubated for 2–4 h. The absorbance of cells in the absence of treatment was regarded as 100% cell survival. […] Thus, CC50 value of 1c were calculated by regression analysis.

mushroom tyrosinase [5] = experiment: Enzyme kinetic analysis in mushroom tyrosinase inhibition (Lineweaver-Burk and Dixon plots); format: biochemical; conditions: for Ki: Dixon plot; for Inhibition type: Lineweaver-Burk plot
Method: In order to estimate the kinetic mechanism, two kinetic methods using Lineweaver-Burk and Dixon plots were used. Using Lineweaver-Burk double reciprocal plots [a plot of 1/enzyme velocity (1/V) vs. 1/substrate concentration (1/[S])], the type of inhibition was determined using various concentrations of L-tyrosine (0.5, 1 and 2 mM) and L-DOPA (0.5, 1, and 2 mM), as substrates, in the absence and presence of various concentrations of 1c (3.2–80 nM; for L-tyrosine, 0.4–10 μM; for L-DOPA). […] The concentrations of 1c were as follows: 3.2–80 nM; for L-tyrosine, 0.4–10 μM; for L-DOPA. The enzymatic procedures comprised of the formerly described tyrosinase test methods. The inhibition constant (Ki) was resolute using Dixon plots.

[6] = substrate L-DOPA, read-out: IC50 (μM), L-DOPA as substrate (diphenolase / dopa oxidase)
[7] = substrate L-tyrosine, read-out: IC50 (μM), L-tyrosine as substrate (monophenolase / tyrosine hydroxylase)

Row | IC50 (mushroom tyrosinase [3]; [6]) [µM] | melting point [°C] | IC50 (mushroom tyrosinase [3]; [7]) [µM] | tyrosinase inhibitory activity toward L-DOPA (in words) (mushroom tyrosinase [3]; substrate L-DOPA) | Structure (SMILES) | other results
1 | 103 ± 8.47 | 182.5 to 185.7 | 75.7 ± 2.46 | – | O=C(/C=C/c1ccc(O)c(O)c1)c1cccs1 [1b, (E)-3-(3,4-Dihydroxyphenyl)-1-(thiophen-2-yl)prop-2-en-1-one] | –
2 | > 200 | 132.8 to 135.2 | 98.8 ± 2.11 | did not inhibit tyrosinase activity | COc1cc(/C=C/C(=O)c2cccs2)ccc1O [1d, (E)-3-(4-Hydroxy-3-methoxyphenyl)-1-(thiophen-2-yl)prop-2-en-1-one] | –
3 | 112 ± 14.3 | 195.2 to 199.6 | – | – | O=C(/C=C/c1ccc(O)c(Br)c1)c1cccs1 [1g, (E)-3-(3-Bromo-4-hydroxyphenyl)-1-(thiophen-2-yl)prop-2-en-1-one] | tyrosinase inhibitory activity toward L-tyrosine (in words) (mushroom tyrosinase [3]; substrate L-tyrosine): inactive
4 | 28.7 ± 1.98 | – | 17.4 ± 1.81 | – | COc1ccc(/C=C/C(=O)c2cccs2)cc1O [1e, (E)-3-(3-Hydroxy-4-methoxyphenyl)-1-(thiophen-2-yl)prop-2-en-1-one] | –
5 | > 200 | 143.6 to 147.3 | 77.9 ± 8.74 | did not inhibit tyrosinase activity | COc1cc(/C=C/C(=O)c2cccs2)cc(OC)c1O [1f, (E)-3-(4-Hydroxy-3,5-dimethoxyphenyl)-1-(thiophen-2-yl)prop-2-en-1-one] | –

The remaining lines, values behind:

Row | Structure (SMILES) | IC50 (mushroom tyrosinase [3]; [6]) [µM] | melting point [°C] | IC50 (mushroom tyrosinase [3]; [7]) [µM] | tyrosinase inhibitory activity toward L-DOPA (in words) (mushroom tyrosinase [3]; substrate L-DOPA) | other results
6 | O=c1cc(CO)occ1O [Kojic acid, kojic acid, reference compound] | – | – | – | – | intracellular tyrosinase activity ([1]; 10 μM): 225.54%; melanin contents (B16F10 melanoma cells [2]; 10 μM): 118.19%
7 | O=C(/C=C/c1ccc(O)cc1O)c1cccs1 [1c, (E)-3-(2,4-Dihydroxyphenyl)-1-(thiophen-2-yl)prop-2-en-1-one] | 0.93 ± 0.22 | – | – | – | intracellular tyrosinase activity ([1]; 0.04 μM): 225.78%; intracellular tyrosinase activity ([1]; 0.2 μM): 157.79%; intracellular tyrosinase activity ([1]; 1 μM): 132.71%; melanin contents (B16F10 melanoma cells [2]; 0.04 μM): 107.29%; melanin contents (B16F10 melanoma cells [2]; 0.2 μM): 98.15%; melanin contents (B16F10 melanoma cells [2]; 1 μM): 88.09%; cytotoxicity (cell viability) (B16F10 melanoma cells [4]): did not show any cytotoxicity; Ki (mushroom tyrosinase [5]; substrate L-DOPA): 1.76 µM; Inhibition type (mushroom tyrosinase [5]; substrate L-DOPA): competitive inhibition; Ki (mushroom tyrosinase [5]; substrate L-tyrosine): 0.00501 µM; Inhibition type (mushroom tyrosinase [5]; substrate L-tyrosine): competitive inhibition
8 | O=C(/C=C/c1cc(Br)c(O)c(Br)c1)c1cccs1 [1h, (E)-3-(3,5-Dibromo-4-hydroxyphenyl)-1-(thiophen-2-yl)prop-2-en-1-one] | > 200 | 269.3 to 272 | – | did not inhibit tyrosinase activity | tyrosinase inhibitory activity toward L-tyrosine (in words) (mushroom tyrosinase [3]; substrate L-tyrosine): inactive
9 | O=C(/C=C/c1ccc(O)cc1)c1cccs1 [1a, (E)-3-(4-Hydroxyphenyl)-1-(thiophen-2-yl)prop-2-en-1-one] | 60.1 ± 7.85 | – | 46.2 ± 0.55 | – | –
